Data set [1] relates to A549. Description: Antiproliferative activity against human A549 cells. The data set is classed as functional, cell-based.
In data set [2] the test system is HepG2. Description: Antiproliferative activity against human HepG2 cells. Format: functional, cell-based.
Data set [3] relates to KB. Kind of data set: Antiproliferative activity against human KB cells. Format: functional, cell-based.
Data set [4] is described as follows: Cytotoxicity against human HEK293 cells. Format: toxicity, cell-based.
A short description of data set [5]: Selectivity ratio of IC50 for human HEK293 cells to IC50 for human A549 cells. Format: toxicity. The note with it: HEK293 cells versus A549 cells, read-out: Ratio IC50.
The nature of data set [6]: Selectivity ratio of IC50 for human HEK293 cells to IC50 for human KB cells. Format: toxicity. The note with it: HEK293 cells versus KB cells, read-out: Ratio IC50.
Data set [7] in a line: Selectivity ratio of IC50 for human HEK293 cells to IC50 for human HepG2 cells. The data set is classed as toxicity. The conditions noted are these: HEK293 cells versus HepG2 cells, read-out: Ratio IC50.

With `C[C@@H]1CC[C@H]2[C@@H](C)C(=O)N(Cc3cn(-c4ccc(Br)cc4)nn3)[C@@H]3O[C@@]4(C)CC[C@@H]1[C@@]23OO4`, the IC50 in data set [1] was 45.9 µM; in data set [2], 34.9 µM; in data set [3], 26.4 µM.

For the compound `C[C@@H]1CC[C@H]2[C@@H](C)C(=O)N(Cc3cn(-c4cccc(F)c4)nn3)[C@@H]3O[C@@]4(C)CC[C@@H]1[C@@]23OO4`, the IC50 in data set [1], in data set [2] and in data set [3] was greater than 280 µM throughout.

With `C[C@@H]1CC[C@H]2[C@@H](C)C(=O)N(Cc3cn(-c4cccc(Br)c4)nn3)[C@@H]3O[C@@]4(C)CC[C@@H]1[C@@]23OO4`, the half-maximal inhibitory concentration (IC50) in data set [4] is greater than 247 µM; in data set [1] it was 15.5 µM; in data set [2], 42.5 µM; in data set [3], 7.7 µM. For the same compound, the selectivity ratio in data set [5] was found to be 16; in data set [6] it was 32; in data set [7] it was 6.

In the case of `C[C@@H]1CC[C@H]2[C@@H](C)C(=O)N(Cc3cn(-c4ccc(I)cc4)nn3)[C@@H]3O[C@@]4(C)CC[C@@H]1[C@@]23OO4`, the IC50 turned out to be 12.4 µM in data set [4], 9.2 µM in data set [1], 31.3 µM in data set [2] and 10.3 µM in data set [3].

With `C[C@@H]1CC[C@H]2[C@@H](C)C(=O)N(Cc3cn(-c4ccccc4Br)nn3)[C@@H]3O[C@@]4(C)CC[C@@H]1[C@@]23OO4`, the results for the 50% inhibitory concentration (IC50) in data set [1], in data set [2] and in data set [3] were 32.9 µM, 42.5 µM and 32.3 µM, respectively.

On to `C[C@@H]1CC[C@H]2[C@@H](C)C(=O)N(Cc3cn(-c4cccc(Cl)c4)nn3)[C@@H]3O[C@@]4(C)CC[C@@H]1[C@@]23OO4`, for which the IC50 in data set [1] amounted to 151 µM; in data set [2], 215 µM; in data set [3], 235 µM.

Turning to `C[C@@H]1CC[C@H]2[C@@H](C)C(=O)N(Cc3cn(-c4cccc(I)c4)nn3)[C@@H]3O[C@@]4(C)CC[C@@H]1[C@@]23OO4`, the half-inhibitory concentration (IC50) was determined as 46.3 µM in data set [4], 135 µM in data set [1], 9.4 µM in data set [2] and 10.6 µM in data set [3]. In addition, the selectivity ratio in data set [6] is 4; in data set [7], 5.

As for `C[C@@H]1CC[C@H]2[C@@H](C)C(=O)N(Cc3cn(-c4ccccc4I)nn3)[C@@H]3O[C@@]4(C)CC[C@@H]1[C@@]23OO4`, the figures for the IC50 in data set [1], in data set [2] and in data set [3] were 27.7 µM, 49.3 µM and 34.1 µM, respectively.

Regarding `Cc1c2ccncc2c(C)c2c1[nH]c1ccccc12` [ELLIPTECINE], the concentration for half-maximal inhibition (IC50) in data set [4] was 6.3 µM; in data set [1] it was 1.7 µM; in data set [2] it was 1.7 µM; in data set [3] it was 1.7 µM.

Source of the values: ChEMBL document CHEMBL6083221, “11-Azaartemisinin derivatives bearing halogenated aromatic moieties: Potent anticancer agents with high tumor selectivity” (Bioorg Med Chem Lett, 2024).
